Assay results from patent US20250031679A1, “SCREENING METHOD OF PROBIOTIC AND ACTIVE SUBSTANCE FOR PROMOTING RE[…] AND USE” (Xuzhou Medical University, priority 2023, published 2025).

Test system: wild-type N2 C. elegans
Experimental: The synchronized L1-stage nematodes were diluted to 20 to 30 nematodes/10 μL. The L1-stage C. elegans was collected in the S broth and cultured in a 96-well plate (365 μL/well). 165 μL of medium, 20 μL of different concentrations of CTX treatment groups, 10 μL of L1-stage nematodes, and 5 μL of OP50 were added in sequence into the 96-well plate, and the nematodes were cultured in a biological incubator at 20° C. for 72 h, where each concentration was set with 10 groups in parallel.
The CTX was set up in three exposure groups from low to high, with concentrations being 500 μg/mL, 1 mg/mL, and 2 mg/mL. At the same time, a blank control was set up.
The nematodes treated with different concentrations of drugs were transferred to NGM, and only one nematode was placed on each medium. The one nematode was picked to a new medium every day with a worm picker. After nematodes produced by this one nematode on the old medium grew to adults, the number of nematodes on the NGM plates with different concentrations of CTX was counted until this one nematode no longer lay eggs. A sum of the number of nematodes exchanged every day was the number of eggs laid and hatched in a whole reproductive cycle of the nematode, and the reproductive capacity of the nematode was determined based on this.
L1-stage C. elegans was obtained according to the protocol in Example 1, and was treated with the CTX at a concentration of 1 mg/mL according to Example 1. Effect of treatment time on the reproductive capacity of the C. elegans was investigated.
Nematodes in L1 to L4 stages were used to construct models and the rest of the steps were conducted according to the method in Example 1.
At 20° C. a blank control group and a CTX treatment group were given pure OP50 bacterial solution and 1 mg/mL CTX/OP50 bacterial solution, respectively. Food were supplemented every 24 h, and whether the nematodes survived normally was observed. After treated in S broth for 72 h, the nematodes in the blank group and the CTX treatment group were transferred to NGM with food OP50, and one nematode was placed on each medium. The one nematode was picked to a new medium every day with a worm picker After nematodes produced by this one nematode on the old medium grew to adults, the number of nematodes on NGM plates of the blank group and the CTX treatment group was counted until this one nematode no longer lay eggs.

## O=P1(N(CCCl)CCCl)NCCCO1 (centres unmarked) [CTX, cyclophosphamide]
500 μg/mL to 2 mg/mL, L1-stage, S broth, 72 h
  reproductive capacity of C. elegans as a function of CTX concentration: decreased with the increase of concentration
CTX 1 mg/mL, 48 h to 96 h treatment
  total number of reproduced C. elegans compared with the control: significantly reduced
CTX 1 mg/mL, L1-stage nematodes, S broth, 20° C., 72 h
  reduction of reproductive capacity (total number of nematodes reproduced) compared with blank control group: 50%
CTX 1 mg/mL, treated for 72 h
  total reproduced C. elegans: reduced to the minimum
Drug treatment at different larval stages L1 to L4
  fecundity of nematodes: significantly reduce the fecundity
